Structures can show the parent of a compound that is named as a salt.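 Five compound concentrations were applied to cells in 96-well plates for 48 hours; endpoints were derived by simple linear interpolation of the resulting dose-response curve. GI50 = concentration required for 50% inhibition of growth.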 Active and inactive are the calls of the source. Rule as the data show it: active = GI50 up to about 1.1 µM and inactive = higher.
What was measured:
Test in all cases: NCI anticancer screen, dose series, 48 h
SR = test system: SR
BT-549 = test system: BT-549
HOP-62 = test system: HOP-62
786-0 = test system: 786-0
MDA-MB-231 = test system: MDA-MB-231
MDA-N = test system: MDA-N
A498 = test system: A498
HCC 2998 = test system: HCC 2998
COLO 205 = test system: COLO 205
HOP-92 = test system: HOP-92
IGROV-1 = test system: IGROV-1
OVCAR-4 = test system: OVCAR-4
RXF 393 = test system: RXF 393
CCRF-CEM = test system: CCRF-CEM
LOX IMVI = test system: LOX IMVI
SK-OV-3 = test system: SK-OV-3
PC-3 = test system: PC-3
HCT-15 = test system: HCT-15
OVCAR-3 = test system: OVCAR-3

Measured: GI50

CC[C@@H]1C(=O)OC[C@@H]1Cc1cncn1C [PILOCARPINE HYDROCHLORIDE]
inactive: SR > 100 µM | BT-549 > 100 µM | HOP-62 > 100 µM | 786-0 > 100 µM | MDA-MB-231 > 100 µM | MDA-N > 100 µM | A498 > 100 µM | HCC 2998 > 100 µM | COLO 205 > 100 µM | HOP-92 > 100 µM | IGROV-1 > 100 µM | OVCAR-4 > 100 µM | RXF 393 > 100 µM | CCRF-CEM > 100 µM | LOX IMVI > 100 µM | SK-OV-3 > 100 µM | PC-3 > 100 µM | OVCAR-3 > 100 µM
> 100 µM: HCT-15

CC1=C(O)C(O)=C(C2=C(O)C(O)=C(C)C(=O)C2=O)C(=O)C1=O
inactive: SR > 100 µM | BT-549 31 µM | HOP-62 44 µM | 786-0 41.7 µM | MDA-MB-231 31.8 µM | MDA-N 40.9 µM | A498 31 µM | HCC 2998 39.1 µM | COLO 205 40.7 µM | HOP-92 29.9 µM | IGROV-1 43.4 µM | OVCAR-4 24.6 µM | RXF 393 26.7 µM | CCRF-CEM 60 µM | LOX IMVI 30.6 µM | SK-OV-3 37.2 µM | PC-3 60.8 µM | OVCAR-3 30.8 µM
> 100 µM: HCT-15

COC1CC(OC2OC(CO)C(O)C(O)C2O)/C(=C\C#N)C(O)C1OC (stereo unspecified)
> 100 µM: HCT-15
inactive: SR > 100 µM | BT-549 > 100 µM | HOP-62 > 100 µM | 786-0 > 100 µM | MDA-MB-231 > 100 µM | MDA-N > 100 µM | A498 > 100 µM | HCC 2998 > 100 µM | COLO 205 > 100 µM | HOP-92 > 100 µM | IGROV-1 > 100 µM | OVCAR-4 > 100 µM | RXF 393 > 100 µM | CCRF-CEM > 100 µM | LOX IMVI > 100 µM | SK-OV-3 > 100 µM | PC-3 > 100 µM | OVCAR-3 > 100 µM

CC1=Nc2ccccc2OC(C)=C1/N=N/c1ccc2[nH]c(C)nc2c1
inactive: SR > 100 µM | BT-549 > 100 µM | HOP-62 > 100 µM | 786-0 > 100 µM | MDA-MB-231 > 100 µM | MDA-N > 100 µM | A498 24.4 µM | HCC 2998 > 100 µM | COLO 205 > 100 µM | HOP-92 44.1 µM | IGROV-1 33.5 µM | OVCAR-4 > 100 µM | RXF 393 56.1 µM | CCRF-CEM > 100 µM | LOX IMVI 66.2 µM | SK-OV-3 > 100 µM | PC-3 > 100 µM | OVCAR-3 > 100 µM
> 100 µM: HCT-15

O=C(CC(=O)N(C(=O)/C=C\c1ccccc1)c1ccc(Cl)cc1)N1N=C(c2ccccc2)C(/N=N/c2cccc([N+](=O)[O-])c2)C1=O (stereo unspecified)
inactive: SR 1.57 µM | BT-549 12.3 µM | HOP-62 11.9 µM | 786-0 3.35 µM | MDA-N 7.05 µM | A498 6.03 µM | HCC 2998 3.87 µM | COLO 205 3.45 µM | HOP-92 51.4 µM | IGROV-1 9.06 µM | RXF 393 10.3 µM | CCRF-CEM 1.36 µM | LOX IMVI 2.98 µM | SK-OV-3 6.32 µM | PC-3 3.23 µM | OVCAR-3 2.36 µM
1.36 µM: HCT-15
active: MDA-MB-231 0.971 µM

CC(C)(C)OC(=O)NCCCNC1(c2cc3ccccc3s2)CCCCC1
14.9 µM: HCT-15
inactive: SR 10.2 µM | BT-549 13.6 µM | HOP-62 14.4 µM | 786-0 14.9 µM | MDA-MB-231 17.6 µM | MDA-N 15.1 µM | A498 15.6 µM | HCC 2998 3.56 µM | COLO 205 12.3 µM | HOP-92 10 µM | IGROV-1 16.7 µM | OVCAR-4 15.2 µM | RXF 393 14.8 µM | CCRF-CEM 8.22 µM | LOX IMVI 16.8 µM | SK-OV-3 13.2 µM | PC-3 18.8 µM | OVCAR-3 13.8 µM

O=c1[nH]c(=O)n(COCCO)c2ccsc12
inactive: SR > 100 µM | BT-549 > 100 µM | HOP-62 > 100 µM | 786-0 > 100 µM | MDA-MB-231 > 100 µM | MDA-N > 100 µM | A498 > 100 µM | HCC 2998 > 100 µM | COLO 205 > 100 µM | HOP-92 > 100 µM | IGROV-1 > 100 µM | OVCAR-4 > 100 µM | RXF 393 > 100 µM | CCRF-CEM > 100 µM | LOX IMVI > 100 µM | PC-3 > 100 µM | OVCAR-3 > 100 µM
> 100 µM: HCT-15

N#C[C@H](c1nc2ccccc2[nH]1)c1nc2ccccc2nc1Cl
inactive: SR 3.09 µM | BT-549 > 28.2 µM | 786-0 7.62 µM | MDA-MB-231 12.7 µM | MDA-N 16.7 µM | A498 26.2 µM | HCC 2998 > 40.6 µM | COLO 205 12.8 µM | HOP-92 > 29 µM | IGROV-1 11.2 µM | OVCAR-4 > 35.2 µM | RXF 393 > 100 µM | CCRF-CEM 2.64 µM | LOX IMVI 3 µM | SK-OV-3 > 53.8 µM | PC-3 > 25.9 µM | OVCAR-3 > 100 µM

CC(=O)Nc1ccccc1SCCSSCCSc1ccccc1NC(C)=O
inactive: SR 34.4 µM | BT-549 51.9 µM | HOP-62 58.6 µM | 786-0 28.4 µM | MDA-MB-231 32.3 µM | MDA-N 25.4 µM | HCC 2998 22.3 µM | COLO 205 20.4 µM | HOP-92 17.5 µM | IGROV-1 20.3 µM | OVCAR-4 22.6 µM | RXF 393 34.2 µM | CCRF-CEM 23.6 µM | LOX IMVI 20 µM | SK-OV-3 27.8 µM | PC-3 23.1 µM | OVCAR-3 28.8 µM
20.7 µM: HCT-15

COc1ccc2c(c1OC)CN1CCc3cc4c(cc3C1C2)OCO4 (stereo unspecified) [TETRAHYDROBERBERINE]
> 100 µM: HCT-15
inactive: SR > 100 µM | BT-549 > 100 µM | HOP-62 > 100 µM | 786-0 > 100 µM | MDA-MB-231 > 100 µM | MDA-N > 100 µM | A498 > 100 µM | HCC 2998 > 100 µM | COLO 205 > 100 µM | HOP-92 > 100 µM | IGROV-1 > 100 µM | OVCAR-4 > 100 µM | LOX IMVI > 100 µM | SK-OV-3 > 100 µM | PC-3 > 100 µM | OVCAR-3 > 100 µM

COC(=O)c1ccc(NCC2=CC(=O)C=CC2=O)cc1
inactive: SR 5.26 µM | BT-549 13.6 µM | 786-0 2.46 µM | MDA-MB-231 14.2 µM | MDA-N 11.4 µM | A498 14.5 µM | HCC 2998 21.6 µM | COLO 205 2.69 µM | HOP-92 3.43 µM | IGROV-1 16.7 µM | OVCAR-4 12.4 µM | CCRF-CEM 1.67 µM | LOX IMVI 5 µM | SK-OV-3 16.7 µM | PC-3 12.6 µM | OVCAR-3 1.79 µM
12.5 µM: HCT-15

COc1ccc(C#Cn2nnc3ccccc32)cc1
inactive: SR > 100 µM | BT-549 > 100 µM | HOP-62 > 100 µM | 786-0 > 100 µM | MDA-MB-231 > 100 µM | MDA-N > 100 µM | A498 > 100 µM | HCC 2998 26.2 µM | COLO 205 > 100 µM | HOP-92 > 100 µM | IGROV-1 > 100 µM | OVCAR-4 > 100 µM | RXF 393 97.7 µM | LOX IMVI > 100 µM | PC-3 86.7 µM | OVCAR-3 40.5 µM
> 100 µM: HCT-15

CC1(C)C2CCC1(C)C(OC(=O)/C=C/C(=O)OC1CC3CCC1(C)C3(C)C)C2 (stereo unspecified)
68.7 µM: HCT-15
inactive: SR 20.1 µM | BT-549 44.7 µM | HOP-62 > 100 µM | 786-0 72.9 µM | MDA-MB-231 > 100 µM | MDA-N 60.4 µM | A498 > 100 µM | HCC 2998 64.4 µM | COLO 205 75.2 µM | HOP-92 24.8 µM | IGROV-1 > 100 µM | OVCAR-4 > 100 µM | RXF 393 58.9 µM | CCRF-CEM 11.4 µM | LOX IMVI 21.7 µM | PC-3 > 100 µM | OVCAR-3 48.8 µM

CC1C2CCC3C(O)C2(CC(O)C2(O)C1CC(O)C2(C)C)CC3(C)O (stereo unspecified)
> 100 µM: HCT-15
inactive: SR > 100 µM | BT-549 > 100 µM | 786-0 > 100 µM | MDA-MB-231 35.8 µM | MDA-N > 100 µM | A498 > 100 µM | HCC 2998 > 100 µM | COLO 205 > 100 µM | HOP-92 > 100 µM | IGROV-1 > 100 µM | OVCAR-4 > 100 µM | CCRF-CEM > 100 µM | LOX IMVI > 100 µM | SK-OV-3 > 100 µM | PC-3 > 100 µM

Oc1ccc(SCc2cc(O)c(O)c(O)c2)cc1
39.9 µM: HCT-15
inactive: SR 25.5 µM | BT-549 25.6 µM | HOP-62 29 µM | 786-0 37 µM | MDA-MB-231 36.4 µM | MDA-N > 10 µM | A498 40.5 µM | HCC 2998 > 10 µM | COLO 205 18.7 µM | HOP-92 > 100 µM | IGROV-1 20.5 µM | RXF 393 89.3 µM | CCRF-CEM 19.3 µM | LOX IMVI 35.9 µM | SK-OV-3 65.9 µM | PC-3 40.3 µM | OVCAR-3 39.4 µM

CC(=O)NC1(C)C(C)C2CC1C(C)C2(C)C (stereo unspecified)
inactive: SR > 100 µM | BT-549 > 100 µM | HOP-62 > 100 µM | 786-0 > 100 µM | MDA-MB-231 > 100 µM | MDA-N > 100 µM | A498 > 100 µM | HCC 2998 > 100 µM | COLO 205 > 100 µM | HOP-92 > 100 µM | IGROV-1 > 100 µM | OVCAR-4 > 100 µM | RXF 393 > 100 µM | CCRF-CEM > 100 µM | SK-OV-3 > 100 µM | PC-3 > 100 µM | OVCAR-3 > 100 µM

From ChEMBL document CHEMBL1201862, “PubChem BioAssay data set” (2004)
